The source of these data is ChEMBL document CHEMBL1123421, “Interaction of monoamine oxidase B with analogues of 1-methyl-4-phenyl-1,2,3,6-tetrahydropyridine derived from prodine-type analgesics” (J Med Chem, 1986).

The species named for assay [1] is Homo sapiens. Put plainly: Compound was tested for inactivation of monoclonal antibody complex Monoamine oxidase B from human autopsy liver.
The species entered for assay [2] is Homo sapiens. Put plainly: Compound was tested for inhibition of monoclonal antibody complex (MAO B - MAO B 1C2) from human autopsy liver expressed as specific activity.
The species named for assay [3] is Homo sapiens. Put plainly: Compound was tested for inactivation of monoclonal antibody complex (MAO B - MAO B 1C2) from human autopsy liver.

For `C1=C(c2ccccc2)CCN(CCc2ccccc2)C1`, in the assay filed under Homo sapiens [1], the k' worked out at 0 min⁻¹. Besides, in the assay listed under Homo sapiens [2], the Specific activity (nM min-1 mg-1) came to 0.

`CC1=C(c2ccccc2)CCN(C)C1`: the Specific activity (nM min-1 mg-1) in the assay listed under Homo sapiens [2] worked out at 5.3. Besides, in the assay listed under Homo sapiens [3], the k' amounted to 0 min⁻¹.

Take `CN1CC=C(c2ccccc2)CC1`: in the assay filed under Homo sapiens [2], the Specific activity (nM min-1 mg-1) was determined as 85.2. In the assay filed under Homo sapiens [3], this molecule gave a k' of 0.0264 min⁻¹.

For the molecule `CC1CN(C)CC=C1c1ccccc1` (stereo not drawn), in the assay filed under Homo sapiens [2], the Specific activity (nM min-1 mg-1) was 11.4. Moreover, the k' in the assay filed under Homo sapiens [3] was 0 min⁻¹.
